Data taken from US20210332024A1, “MODULATORS OF PIN1 ACTIVITY AND USES THEREOF” (Yeda Research and Development Co. Ltd., priority 2019, published 2021).
Values joined by “and” are separate entries in the source; they are usually repeats but may differ in a detail not shown here. Equal entries are not always repeated. Where two headings read alike, the source gives them in different places.

How the values were obtained:
[1] = test system: Pancreatic ductal adenocarcinoma (PDAC) cells; assay: PDAC cell growth; type: cell-based, human; details: treated for 3 days
Protocol: Pancreatic ductal adenocarcinoma (PDAC) cells (derived from a human patient) were treated with Pin1-3 for 3 days. PDAC organoids were treated with Pin1-3 for 7 days (day 7 to day 14).

[2] = test system: MDA-MB-468 breast adenocarcinoma cells; assay: Prolonged-treatment cell growth, MDA-MB-468; type: cell-based; details: MDA-MB-468, 1 or 2.5 μM
Protocol: (§1) The ability of Pin1-3 treatment to induce more pronounced anti-proliferative effects after prolonged treatment (6-8 days) was then assessed. In order to ensure that target engagement was maintained for the duration of the experiment, Pin1-3 was replenished in fresh media every 48 hours.

[3] = Metabolic stability in hepatic microsomes; type: in vitro ADME; details: liver microsomes; mouse hepatic microsomes
[4] = test system: Pin1-knockout 8988T pancreatic cancer cells; assay: Prolonged-treatment cell growth, Pin1-knockout 8988T; type: cell-based; details: 1 μM
Protocol: as §1
The effect of Pin1-binding compounds on 8988T pancreatic adenocarcinoma cells was assessed by incubating cells with 1 μM Pin1-3, and evaluating cell growth relative to cells incubated with vehicle (DMSO) alone. In order to confirm that the effect of Pin1-3 is mediated by Pin1, the experiment was repeated using Pin1 knockout cells.

[5] = Pharmacokinetics, intravenous administration; type: in vivo, Male C57Bl/6J mice
Protocol: (§2) Male C57Bl/6J mice received Pin1-3 intravenously (as a 0.2 mg/ml solution in 5/5/90 NMP/Solutol/saline) or orally (as a 1 mg/ml solution in 5/5/90 NMP/Solutol/saline). The intravenous dosage was 2 mg/kg and the oral dosage was 10 mg/kg.

[6] = Pharmacokinetics, oral administration; type: in vivo, Male C57Bl/6J mice; details: for AUC(0-inf): read-out: AUCINF obs. (converted)
Protocol: as §2

Pin1 in PATU-8988T cells = target: T1, Pin1 in PATU-8988T cells (Homo sapiens, UniProt Q13526); assay: Live cell competition assay with Pin1-3-DTB pull-down, PATU-8988T cells; type: cell-based
T1 construct: endogenous in cells; host or cells: PATU-8988T
Protocol: The indicated cells were treated with increasing concentrations of either DMSO, Pin1-3, or Pin1-3-AcA for 5 hours. Cells were harvested by scraping and washed twice with PBS before lysis with 50 mM HEPES (pH 7.4), 1 mM EDTA, 10% glycerol, 1 mM TCEP, 150 mM NaCl, 1 mM EDTA, 0.5% NP-40, and protease inhibitor tablet (Roche cat. #4693159001). After clarifying (14,000 rpm for 15 minutes), samples were treated with the indicated concentrations of Pin1-3-DTB at 4° C. for 1 hour. Lysates were then incubated with streptavidin agarose resin (Thermo Scientific, cat. #20349) for 1.5 hour at 4° C. Beads were washed four times with 500 μl of washing buffer (50 mM HEPES (pH 7.5), 10 mM NaCl, 1 mM EDTA, 10% glycerol), then pelleted by centrifugation and dried. The beads were boiled for 5 minutes at 95° C. in 2×LDS+10% β-mercaptoethanol. Proteins of interest were then assessed via Western blotting using the bolt system (Life Technologies).
The indicated cells were plated in 10 cm plates with 2.5 million cells per plate in 6 ml of medium. The day after plating, cells were treated with the indicated concentrations of candidate inhibitor for the indicated time points. The cells were then washed two times with cold phosphate buffer saline (1 ml per 10 cm plate) and collected by scraping with a cell scraper. Cells were lysed in 50 mM HEPES (pH 7.4), 1 mM EDTA, 10% glycerol, 1 mM TCEP, 150 mM NaCl, 1 mM EDTA, 0.5% NP-40, and protease inhibitor tablet (Roche)-using 210 μl of cell lysis buffer per 10 cm plate of cells. After clarifying (14,000 rpm for 15 minutes), 9 μl of each lysate sample was combined with […] of 4×LDS+10% β-mercaptoethanol (in a ratio of 3:1), boiled for 5 minutes, and set aside for the input loading control. Then, 200 μl of each lysate sample was incubated with 1 μM of Pin1-3-DTB for 1 hour at 4° C. and processed as described hereinabove for the lysate pull-down assays.
In order to assess cell permeability of Pin1-3 as well as its ability to engage cellular Pin1, PATU-8988T cells were treated with Pin1-3 (0.25 to 1 μM) for 5 hours. After cell lysis, the lysates were incubated with Pin1-3-DTB (1 μM, 1 hour at 4° C.) and probe-labeled targets were pulled down with streptavidin beads.

[7] = intravenous 2 mg/kg, individual mice No. 1-3, 2 mg/kg
[8] = male, C57Bl/6J, mouse, in vivo, iv, 2 mg/kg, Avg. of 3 mice
[9] = male, C57Bl/6J, mouse, in vivo, iv, 2 mg/kg, individual mice No. 1-3
[10] = male, C57Bl/6J, mouse, in vivo, po, 10 mg/kg, oral 10 mg/kg, Avg. of 3 mice
[11] = male, C57Bl/6J, mouse, in vivo, po, 10 mg/kg, oral 10 mg/kg, individual mice No. 1-3
[12] = oral 10 mg/kg, individual mice No. 1-3, 10 mg/kg

T1 sequence (Q13526 whole entry): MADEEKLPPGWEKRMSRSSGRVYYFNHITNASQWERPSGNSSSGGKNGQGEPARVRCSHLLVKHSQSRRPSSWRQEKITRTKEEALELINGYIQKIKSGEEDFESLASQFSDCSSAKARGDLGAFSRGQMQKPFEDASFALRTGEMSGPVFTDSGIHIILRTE

For `CC(C)(C)CN(C(=O)CCl)C1CCS(=O)(=O)C1` (centres unmarked) [Pin1-3, 2-chloro-N-(sulfolan-3-yl)-N-neopentylacetamide], the PDAC cell growth [1] was “inhibited tumor growth of PDAC cells in a dose-dependent manner”, the Cell growth [2] was “long-term inhibition” and the half-life [3] was 41 min. The “Cell viability / growth” value [4] was “no considerable effect”, the AUC % extrap. ([5]; intravenous 2 mg/kg, Avg. of 3 mice) was 0.23% and the AUC % extrap. [5, 7] was 0.36% and 0.17% and 0.18%. The AUCINF obs. [5, 7] was 294012 ng·min/mL and 365536 ng·min/mL, the AUClast [5, 7] was 293517 min*ng/ml and 17.4 hr*μM and 364891 min*ng/ml and 21.6 hr*μM and the Cl obs. [5, 7] was 6.80 mL/min/kg and 5.47 mL/min/kg. The Cmax [5, 7] was 1620 ng/mL and 2030 ng/mL, the MRTINF obs. [5, 7] was 113 min and 109 min and the T1/2 [5, 7] was 40.8 min and 43.2 min. The VSS obs. [5, 7] was 0.77 L/kg and 0.60 L/kg, the Cmax ([5]; intravenous 2 mg/kg, individual mice No. 1-3, 2 mg/kg, read-out: Cmax) was 5.76 µM and 7.22 µM and the AUC(0-t) [5, 8] was 6050 ng·h/mL and 21.5 µM·h. For the same compound, the half-life [5, 8] was 45.6 min, the AUC(0-inf) ([5]; male, C57Bl/6J, mouse, in vivo, iv, 2 mg/kg, Avg. of 3 mice, read-out: AUCINF obs. (converted)) was 6070 ng·h/mL and the clearance ([5]; male, C57Bl/6J, mouse, in vivo, iv, 2 mg/kg, Avg. of 3 mice, read-out: Cl obs.) was 5.63 mL/min/kg. For the same compound, the Cmax ([5]; male, C57Bl/6J, mouse, in vivo, iv, 2 mg/kg, Avg. of 3 mice, read-out: Cmax) was 2090 ng/mL and 7.42 µM, the MRT inf ([5]; male, C57Bl/6J, mouse, in vivo, iv, 2 mg/kg, Avg. of 3 mice, read-out: MRTINF obs.) was 108 min and the Vd ([5]; male, C57Bl/6J, mouse, in vivo, iv, 2 mg/kg, Avg. of 3 mice, read-out: VSS obs.) was 0.61 L/kg. For the same compound, the AUC(0-t) [5, 9] was 7190 ng·h/mL and 25.6 µM·h, the half-life [5, 9] was 53.4 min and the AUC(0-inf) ([5]; male, C57Bl/6J, mouse, in vivo, iv, 2 mg/kg, individual mice No. 1-3, read-out: AUCINF obs. (converted)) was 7210 ng·h/mL. The clearance ([5]; male, C57Bl/6J, mouse, in vivo, iv, 2 mg/kg, individual mice No. 1-3, read-out: Cl obs.) was 4.62 mL/min/kg, the Cmax ([5]; male, C57Bl/6J, mouse, in vivo, iv, 2 mg/kg, individual mice No. 1-3, read-out: Cmax) was 2610 ng/mL and 9.28 µM and the MRT inf ([5]; male, C57Bl/6J, mouse, in vivo, iv, 2 mg/kg, individual mice No. 1-3, read-out: MRTINF obs.) was 102 min. For the same compound, the Vd ([5]; male, C57Bl/6J, mouse, in vivo, iv, 2 mg/kg, individual mice No. 1-3, read-out: VSS obs.) was 0.47 L/kg, the Tmax ([5]; male, C57Bl/6J, mouse, in vivo, intravenous 2 mg/kg, individual mice No. 1-3) was 30 min and the AUC(0-t) [6, 10] was 9210 ng·h/mL and 32.8 µM·h. For the same compound, the Tmax [6, 10] was 25.2 min, the half-life [6, 10] was 49.2 min and the AUC(0-inf) [6, 10] was 9230 ng·h/mL. For the same compound, the Cmax ([6]; male, C57Bl/6J, mouse, in vivo, po, 10 mg/kg, oral 10 mg/kg, Avg. of 3 mice, read-out: Cmax) was 11.5 µM and 3220 ng/mL, the AUC(0-t) [6, 11] was 9590 ng·h/mL and 34.1 µM·h and the Tmax [6, 11] was 15 min. The half-life [6, 11] was 38.4 min, the AUC(0-inf) [6, 11] was 9600 ng·h/mL and the Cmax ([6]; male, C57Bl/6J, mouse, in vivo, po, 10 mg/kg, oral 10 mg/kg, individual mice No. 1-3, read-out: Cmax) was 4050 ng/mL and 14.4 µM. For the same compound, the bioavailability ([6]; male, C57Bl/6J, mouse, in vivo, oral 10 mg/kg vs intravenous 2 mg/kg, Avg., read-out: F % (oral bioavailability)) was 30.4%, the AUC % extrap. ([6]; oral 10 mg/kg, Avg. of 3 mice) was 0.24% and the Cl obs. ([6]; oral 10 mg/kg, Avg. of 3 mice) was 18.15 mL/min/kg. For the same compound, the AUC % extrap. [6, 12] was 0.03% and 0.32% and 0.38%, the AUCINF obs. [6, 12] was 498172 ng·min/mL and 587646 ng·min/mL and the AUClast [6, 12] was 496559 min*ng/ml and 29.4 hr*μM and 585438 min*ng/ml and 34.7 hr*μM. The Cl obs. [6, 12] was 17.37 mL/min/kg and 20.07 mL/min/kg and 17.02 mL/min/kg, the Cmax [6, 12] was 2420 ng/mL and 3200 ng/mL and the T1/2 [6, 12] was 54.6 min and 55.2 min. The Cmax ([6]; oral 10 mg/kg, individual mice No. 1-3, 10 mg/kg, read-out: Cmax) was 8.61 µM and 11.4 µM, the “Engagement of Pin1 after 2 hours” value (Pin1 in PATU-8988T cells; 1 μM) was “about 50%” and the “Time to complete engagement of Pin1” value (Pin1 in PATU-8988T cells; 1 μM) was ≤ 4 h. The “Competition with Pin1-3-DTB for Pin1 binding (pull-down)” value (Pin1 in PATU-8988T cells; 0.25 to 1 μM for 5 hours (Pin1-3-AcA 1 μM)) was “dose-dependent inhibition of Pin1-3-DTB pull-down” and the “Concentration of maximal competition” value (Pin1 in PATU-8988T cells; 5 hours) was 1 µM.
